Data as given in patent publication US7569547B2, “Inhibiting furin with polybasic peptides” (Board of Supervisors of Louisiana State University and …, priority 2001, dated 2009).
Non-standard residues stand in square brackets, D forms with d. Residues, ends and D or L forms follow the SMILES beside them.

What was measured:
Assay type in all cases: biochemical
PC2 = biological target: T1, PC2 (Mus musculus, UniProt P21661); test: PC2 enzyme assay, hydrolysis of pERTKR-MCA at pH 5.0; parameters: made in house
T1 sequence (P21661 109-637): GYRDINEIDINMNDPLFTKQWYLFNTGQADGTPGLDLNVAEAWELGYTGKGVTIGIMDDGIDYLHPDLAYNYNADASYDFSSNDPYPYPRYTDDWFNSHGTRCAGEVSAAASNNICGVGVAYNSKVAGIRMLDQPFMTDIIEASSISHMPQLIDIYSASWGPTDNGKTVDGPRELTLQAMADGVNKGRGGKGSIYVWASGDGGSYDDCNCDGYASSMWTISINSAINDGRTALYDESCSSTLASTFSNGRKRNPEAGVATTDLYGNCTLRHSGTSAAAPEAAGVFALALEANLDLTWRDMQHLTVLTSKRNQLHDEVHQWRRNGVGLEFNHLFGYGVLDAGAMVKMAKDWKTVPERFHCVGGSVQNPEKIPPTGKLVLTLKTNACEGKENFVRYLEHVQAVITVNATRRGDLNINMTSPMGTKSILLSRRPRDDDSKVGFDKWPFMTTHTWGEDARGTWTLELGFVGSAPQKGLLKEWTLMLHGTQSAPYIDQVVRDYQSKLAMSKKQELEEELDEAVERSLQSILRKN
Method: (§1) The proprotein convertases PC1 and PC2 were prepared by ion exchange chromatography as described in G. Frenette et al., Biochim. Biophys. Acta., vol. 1334, pp. 109-115 (1997).
(§2) Enzyme Assays and Hexapeptide Library Screening. Enzyme assays for PC1 and PC2 were performed at pH 5.0 using pERTKR-MCA (Peptides International Inc., Louisville, Ky.) as described in E. Apletalina et al., J. Biol. Chem., vol. 273, pp. 26589-26595 (1998). The assay for furin was performed using the same substrate at pH 7.0 in 100 mM HEPES, 5 mM CaCl2, 0.1% Brij 35. All assays were performed at 37° C. in a 96 well fluorometer (Labsystems) at an excitation wavelength of 380 nm with emission monitored at a wavelength of 460 nm. The total volume was 50 μL. Unless otherwise stated, the final substrate concentration for all assays was 200 μM. When used in a particular experiment, the inhibitory peptides were pre-incubated with enzyme for 30 min at room temperature prior to addition of substrate. All assays were performed in duplicate or triplicate.

recombinant mouse furin = biological target: T2, recombinant mouse furin (Mus musculus, UniProt P23188); test: Furin enzyme assay, hydrolysis of pERTKR-MCA at pH 7.0; details: for type of inhibition of furin (Lineweaver-Burk plots): furin 30 nM, 0, 20 or 40 μM hexapeptide, polyarginines forty-fold lower
T2 construct: truncated N-terminally to the transmembrane domain at His^711 using PCR; myc (C, cleaved yes); hexa-His (C, cleaved yes); made in house; host or cells: DG44 CHO cells, conditioned medium
T2 sequence (P23188 108-714 limits assumed): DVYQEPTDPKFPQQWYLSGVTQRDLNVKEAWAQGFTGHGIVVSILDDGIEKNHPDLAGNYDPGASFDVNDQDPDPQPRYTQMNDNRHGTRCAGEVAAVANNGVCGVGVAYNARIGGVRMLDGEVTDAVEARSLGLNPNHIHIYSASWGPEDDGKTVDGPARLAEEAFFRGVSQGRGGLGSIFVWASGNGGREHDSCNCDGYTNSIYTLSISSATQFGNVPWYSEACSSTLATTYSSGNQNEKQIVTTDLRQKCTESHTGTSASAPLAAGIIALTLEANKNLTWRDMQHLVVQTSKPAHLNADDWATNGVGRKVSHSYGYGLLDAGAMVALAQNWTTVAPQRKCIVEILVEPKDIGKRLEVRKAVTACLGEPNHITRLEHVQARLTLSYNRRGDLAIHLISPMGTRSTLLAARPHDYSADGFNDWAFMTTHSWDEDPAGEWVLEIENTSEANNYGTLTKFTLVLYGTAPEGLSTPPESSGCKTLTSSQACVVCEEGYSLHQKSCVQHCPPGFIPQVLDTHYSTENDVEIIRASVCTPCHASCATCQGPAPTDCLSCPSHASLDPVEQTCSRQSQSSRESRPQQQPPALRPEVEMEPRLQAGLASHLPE
Source text: Recombinant convertase preparation. The mouse furin clone was a kind gift from K. Nakayama (Fukuoka University School of Medicine, Fukuoka, Japan). The mouse furin cDNA was truncated N-terminally to the transmembrane domain at His^711 using PCR. This PCR product was then subcloned into pcDNA3.1 (−) myc-His (Invitrogen) at the Nhe1 and Xba1 restriction sites. Dihydrofolate-reductase-negative DG44 Chinese Hamster Ovary (CHO) cells (L. Chasin, Columbia University, New York, N.Y.) were transfected using Lipofectin (Life Technologies), and colonies were selected at 37° C. in 5% CO2 in α-MEM (lacking nucleosides) containing 10% well-dialyzed fetal bovine serum (Life Technologies). Conditioned media from colonies were screened using an enzyme assay (see below), and a high-expressing clone was selected. Overexpression of furin was achieved by increasing the methotrexate concentration from 5 nM to 50 μM in five- to ten-fold steps as described in I. Lindberg et al., Methods Neurosci., vol. 23, pp. 94-108 (1995). The amplified lines were tested for increased furin expression by enzyme assay. Once the 50 μM methotrexate level had been reached, cells were split at ratios of 1:6 twice a week. 100 mL of conditioned media (OptiMEM, Life Technologies) containing 100 μg/mL aprotinin (Miles Laboratories, Kankakee, Ill.) was collected from confluent roller bottles every 24 h. The medium was then centrifuged at low speed to remove cells, and the supernatant was stored at −80° C. until use.
Purification of furin: Conditioned medium was thawed, pooled, and diluted 1:3.5 with buffer A (20 mM HEPES, 0.1% Brij 35, 5 mM CaCl2, pH 7.4), and pumped at 40 mL/min through a Sartorius D100 anion exchange membrane. The membrane was washed with 40 mL of buffer A, followed by 40 mL of buffer A containing 50 mM NaCl, and finally by 40 mL of buffer A containing 200 mM NaCl. The fraction eluting with 200 mM NaCl was diluted 1:4 with buffer A and applied to a 1 mL Pharmacia Mono Q HR5/5 anion exchange column at a flow rate of 1 mL/min. Following a 10 mL wash with buffer A, furin was eluted by a linear increase of 0 to 500 mM NaCl in buffer A over 30 mL; and 2 mL fractions were collected. Fractions containing peak activity were pooled, and 200 μL aliquots were subjected to gel permeation chromatography using a Pharmacia Superose 12 column at a flow rate of 0.5 mL/min of buffer A containing 200 mM NaCl. Fractions were assayed for activity as described below; protein content was determined using the Bradford method. All purification steps were performed at 4° C.
as §2

PACE4 = biological target: T3, PACE4 (Rattus norvegicus, UniProt Q63415); test: PACE4 enzyme assay, hydrolysis of pERTKR-MCA
T3 construct: made in house; host or cells: stably transfected hEK-293 cells (gift of R. E. Mains), conditioned medium
T3 sequence (Q63415 133-937): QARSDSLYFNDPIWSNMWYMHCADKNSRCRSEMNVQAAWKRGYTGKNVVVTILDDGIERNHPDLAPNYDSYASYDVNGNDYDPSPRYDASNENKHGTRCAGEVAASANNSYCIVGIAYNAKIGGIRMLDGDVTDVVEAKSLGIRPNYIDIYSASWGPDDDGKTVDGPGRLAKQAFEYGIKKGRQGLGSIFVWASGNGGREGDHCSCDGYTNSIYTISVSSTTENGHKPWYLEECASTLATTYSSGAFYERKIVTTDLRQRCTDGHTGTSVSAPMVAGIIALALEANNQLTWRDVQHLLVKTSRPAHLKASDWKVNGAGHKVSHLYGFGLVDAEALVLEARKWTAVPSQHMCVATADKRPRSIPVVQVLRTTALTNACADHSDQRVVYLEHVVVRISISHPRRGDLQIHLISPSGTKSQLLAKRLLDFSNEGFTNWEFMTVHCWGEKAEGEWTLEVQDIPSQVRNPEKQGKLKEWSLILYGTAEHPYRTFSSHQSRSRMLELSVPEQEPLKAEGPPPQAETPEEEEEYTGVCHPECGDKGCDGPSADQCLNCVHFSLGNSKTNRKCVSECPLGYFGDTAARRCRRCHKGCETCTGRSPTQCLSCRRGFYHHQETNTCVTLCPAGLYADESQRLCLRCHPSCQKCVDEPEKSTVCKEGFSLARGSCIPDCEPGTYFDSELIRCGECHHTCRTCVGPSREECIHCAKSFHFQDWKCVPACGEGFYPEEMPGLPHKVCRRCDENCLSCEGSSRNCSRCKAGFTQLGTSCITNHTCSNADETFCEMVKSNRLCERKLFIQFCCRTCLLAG
Method: The proprotein convertase PACE4 was partially purified from an overnight-conditioned medium of stably transfected hEK-293 human embryonic kidney cells (a generous gift of R. E. Mains, Johns Hopkins University School of Medicine, Baltimore, Md.). Briefly, 100 mL of conditioned medium (OptiMEM containing 100 μg/mL aprotinin) was loaded onto an Econo-Pac Q (Bio-Rad) column at 4 mL/min, washed with 10 mL of buffer A, and then eluted with a linear gradient of buffer A containing 500 mM NaCl over 50 mL. The active fractions were then diluted 1:4 with buffer A prior to loading onto a Mono Q column (Pharmacia) at 1 mL/min. The PACE4 was eluted with a linear gradient of buffer A containing 500 mM NaCl over 10 mL. The resulting active fractions were then pooled and stored at −80° C. until use.
as §2

PC1 = biological target: T4, PC1 (Mus musculus, UniProt P63239); test: biochemical
T4 construct: made in house
T4 sequence (P63239 111-753): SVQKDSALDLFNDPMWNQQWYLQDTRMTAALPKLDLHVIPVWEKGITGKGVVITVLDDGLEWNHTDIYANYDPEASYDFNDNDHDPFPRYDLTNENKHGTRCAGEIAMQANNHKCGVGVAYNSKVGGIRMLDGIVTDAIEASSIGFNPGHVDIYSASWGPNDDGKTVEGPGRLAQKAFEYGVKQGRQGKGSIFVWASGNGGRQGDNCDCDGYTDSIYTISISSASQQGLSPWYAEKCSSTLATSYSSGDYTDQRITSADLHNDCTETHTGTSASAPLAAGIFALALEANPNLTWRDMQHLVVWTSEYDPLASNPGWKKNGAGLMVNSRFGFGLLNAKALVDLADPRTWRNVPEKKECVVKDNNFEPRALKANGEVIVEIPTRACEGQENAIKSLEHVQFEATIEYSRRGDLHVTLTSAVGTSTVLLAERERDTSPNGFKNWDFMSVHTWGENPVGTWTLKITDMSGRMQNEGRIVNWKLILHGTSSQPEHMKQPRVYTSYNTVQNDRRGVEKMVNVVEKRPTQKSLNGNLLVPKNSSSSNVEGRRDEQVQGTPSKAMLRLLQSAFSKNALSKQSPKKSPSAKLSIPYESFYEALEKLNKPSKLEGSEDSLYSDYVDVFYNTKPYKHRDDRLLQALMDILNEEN
Method: as §1, §2

CC(=O)N[C@@H](CC(C)C)C(=O)N[C@@H](CC(C)C)C(=O)N[C@@H](CCCN=C(N)N)C(=O)N[C@H](C(=O)N[C@@H](CCCCN)C(=O)N[C@@H](CCCN=C(N)N)C(=O)O)C(C)C [Ac-LLRVKR]
Ki (PC2): 1.3 ± 0.6 µM

CC[C@@H](C)[C@@H](NC(=O)[C@@H](CCCNC(=N)N)NC(=O)[C@@H](CCCNC(=N)N)NC(=O)[C@@H](CCCNC(=N)N)NC(=O)[C@@H](Cc1c[nH]c2ccccc12)NC(C)=O)C(=O)N[C@H](CC(C)C)C(N)=O [Ac-wrrril-NH2] (Ac-[dW][dR][dR][dR][dI][dL]-NH2)
Ki (recombinant mouse furin): 22.7 ± 4.3 µM | Ki (PC2): 601 ± 200 µM

CC[C@@H](C)[C@@H](NC(=O)[C@@H](CCCNC(=N)N)NC(=O)[C@@H](CCCNC(=N)N)NC(=O)[C@@H](CCCNC(=N)N)NC(=O)[C@@H](Cc1c[nH]c2ccccc12)NC(C)=O)C(=O)N[C@H](CCCNC(=N)N)C(N)=O [Ac-wrrrir-NH2] (Ac-[dW][dR][dR][dR][dI][dR]-NH2)
Ki (recombinant mouse furin): 7 ± 0.9 µM | Ki (PC2): 399 ± 75 µM

CC(=O)N[C@H](Cc1c[nH]c2ccccc12)C(=O)N[C@H](CCCNC(=N)N)C(=O)N[C@H](CCCNC(=N)N)C(=O)N[C@H](CCCNC(=N)N)C(=O)N[C@H](CCCNC(=N)N)C(=O)N[C@H](CC(C)C)C(N)=O [Ac-wrrrrl-NH2] (Ac-[dW][dR][dR][dR][dR][dL]-NH2)
Ki (recombinant mouse furin): 5.3 ± 1 µM | Ki (PC2): 203 ± 20 µM

CC(=O)N[C@H](Cc1c[nH]c2ccccc12)C(=O)N[C@H](CCCNC(=N)N)C(=O)N[C@H](CCCNC(=N)N)C(=O)N[C@H](CCCNC(=N)N)C(=O)N[C@H](CCCNC(=N)N)C(=O)N[C@H](CCCNC(=N)N)C(N)=O [Ac-wrrrrr-NH2] (Ac-[dW][dR][dR][dR][dR][dR]-NH2)
Ki (recombinant mouse furin): 2.4 ± 0.8 µM | type of inhibition of furin (Lineweaver-Burk plots) (recombinant mouse furin): strictly competitive-type inhibition | Ki (PC2): 334 ± 37 µM

N=C(N)NCCC[C@H](NC(=O)[C@H](CCCNC(=N)N)NC(=O)[C@H](CCCNC(=N)N)NC(=O)[C@H](CCCNC(=N)N)NC(=O)[C@H](CCCNC(=N)N)NC(=O)[C@H](CCCNC(=N)N)NC(=O)[C@@H](N)CCCNC(=N)N)C(=O)O [Hepta-L-arginine]
Ki (PACE4): 0.24 ± 0.045 µM | Ki (PC1): 5.2 ± 1.2 µM

CC(C)C[C@H](NC(=O)[C@@H](N)CC(C)C)C(=O)N[C@@H](CCCNC(=N)N)C(=O)N[C@H](C(=O)N[C@@H](CCCCN)C(=O)N[C@@H](CCCNC(=N)N)C(N)=O)C(C)C [LLRVKR-NH2]
Ki (PC2): 2.3 ± 0.2 µM

CC(C)C[C@H](NC(=O)[C@@H](N)CC(C)C)C(=O)N[C@@H](CCCNC(=N)N)C(=O)N[C@H](C(=O)N[C@@H](CCCCN)C(=O)N[C@@H](CCCNC(=N)N)C(=O)O)C(C)C [LLRVKR]
increase of inhibitory potency against furin on removing the terminal amide and acetyl groups (recombinant mouse furin; LLRVKR compared with acetylated and amidated form): eight-fold | Ki (PC2): 3.7 ± 0.17 µM

N=C(N)NCCC[C@H](NC(=O)[C@H](CCCNC(=N)N)NC(=O)[C@H](CCCNC(=N)N)NC(=O)[C@H](CCCNC(=N)N)NC(=O)[C@H](CCCNC(=N)N)NC(=O)[C@H](CCCNC(=N)N)NC(=O)[C@H](CCCNC(=N)N)NC(=O)[C@@H](N)CCCNC(=N)N)C(=O)O [Octa-L-arginine]
Ki (PACE4): 0.15 ± 0.06 µM | Ki (PC1): 5.1 ± 2 µM

Ac-HHKRRR-NH2 [Ac-HHKRRR-NH2]
Ki (PC2): 235 ± 16 µM

Ac-HRKRRR-NH2 [Ac-HRKRRR-NH2]
Ki (PC2): 309 ± 29 µM

Ac-KHKRRR-NH2 [Ac-KHKRRR-NH2]
Ki (PC2): 280 ± 29 µM

Ac-KRKRRR-NH2 [Ac-KRKRRR-NH2]
Ki (PC2): 391 ± 60 µM

Ac-MHKRRR-NH2 [Ac-MHKRRR-NH2]
Ki (PC2): 216 ± 13 µM

Ac-MRKRRR-NH2 [Ac-MRKRRR-NH2]
Ki (PC2): 1500 µM

Ac-RHKRRR-NH2 [Ac-RHKRRR-NH2]
Ki (recombinant mouse furin): 3.4 ± 0.6 µM | Ki (PC2): 152 ± 30 µM

Ac-RRKRRR-NH2 [Ac-RRKRRR-NH2]
type of inhibition of furin (Lineweaver-Burk plots) (recombinant mouse furin): strictly competitive-type inhibition | Ki (PC2): 461 ± 75 µM
